IC50 data for 20 molecules are collected here from patent US4820834A, “Benzodiazepine analogs” (priority 1987, dated 1989).

Where two headings read alike, the source gives them in different places.

For assay [1], the target named is T1, CCK receptor (brain, cerebral cortex) (Cavia porcellus, UniProt H0VZC5).
T1 construct: Cerebral cortex was dissected and used as a receptor source; from tissue; host or cells: guinea pig cerebral cortex membranes (male Hartley)
T1 sequence (H0VZC5 1-426): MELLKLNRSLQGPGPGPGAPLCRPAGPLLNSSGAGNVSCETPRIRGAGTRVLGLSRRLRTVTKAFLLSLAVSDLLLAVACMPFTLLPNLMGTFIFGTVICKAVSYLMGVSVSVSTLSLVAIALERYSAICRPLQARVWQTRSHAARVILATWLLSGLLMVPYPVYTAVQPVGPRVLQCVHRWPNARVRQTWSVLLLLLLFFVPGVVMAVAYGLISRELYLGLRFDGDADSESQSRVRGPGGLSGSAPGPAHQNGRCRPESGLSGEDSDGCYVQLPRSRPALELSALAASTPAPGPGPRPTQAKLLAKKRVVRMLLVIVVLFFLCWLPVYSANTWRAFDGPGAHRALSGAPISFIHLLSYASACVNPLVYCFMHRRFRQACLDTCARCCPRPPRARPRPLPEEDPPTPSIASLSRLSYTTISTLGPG
Put plainly: biochemical. Format: binding, Male Hartley guinea pigs. The conditions noted are these: guinea pig cerebral cortex, ^125 I-CCK-33, 25° C., 2 hours. The method in brief:
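Guinea pig cerebral cortex homogenate as receptor source, with radiolabeled CCK-33 in HEPES buffer containing MgCl2, bacitracin, EGTA and 0.4% BSA. Incubation 2 h at 25°C; bound ligand pelleted by centrifugation and gamma-counted.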

The target of the next assay is T2, CCK receptor (pancreas) (Rattus norvegicus, UniProt P30551).
T2 construct: The whole pancreas was dissected free of fat tissue and was homogenized; from tissue; host or cells: rat pancreas membranes (Sprague-Dawley)
T2 sequence (P30551 1-444): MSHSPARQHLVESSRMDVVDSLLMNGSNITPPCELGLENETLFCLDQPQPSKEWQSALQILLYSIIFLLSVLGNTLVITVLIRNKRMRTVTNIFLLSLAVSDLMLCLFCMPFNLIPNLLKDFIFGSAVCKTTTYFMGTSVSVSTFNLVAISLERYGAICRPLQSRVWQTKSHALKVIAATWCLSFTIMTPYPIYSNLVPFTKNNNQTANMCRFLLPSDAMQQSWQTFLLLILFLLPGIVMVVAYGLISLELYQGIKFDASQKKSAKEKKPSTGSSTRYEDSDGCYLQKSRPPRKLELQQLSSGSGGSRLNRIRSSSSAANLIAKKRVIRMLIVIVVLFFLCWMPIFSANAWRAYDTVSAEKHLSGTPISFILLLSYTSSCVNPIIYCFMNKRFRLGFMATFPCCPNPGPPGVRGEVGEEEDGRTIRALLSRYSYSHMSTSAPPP
Put plainly: CCK Receptor Binding (Pancreas): inhibition of ^125 I-CCK-33 binding. Further details: species or system Male Sprague-Dawley rats. The conditions noted are these: rat pancreas membranes, ^125 I-CCK-33, 37° C., 30 minutes. The method in brief: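 Rat (male Sprague-Dawley) pancreatic membranes in 50 mM Tris HCl pH 7.7 with DTT, bacitracin, PMSF and o-phenanthroline; ^125I-Bolton Hunter-labelled CCK-33 as radioligand. Incubation 30 min at 37° C, separation by centrifugation, pellet gamma-counted; Scatchard analysis by diluting ^125I-CCK-33 with increasing CCK-33.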

Assay [2] addresses T3, Gastrin receptor (gastric glands) (Cavia porcellus, UniProt H0VZC5).
T3 construct: The washed guinea pig gastric glands prepared as above were resuspended; from tissue; host or cells: guinea pig gastric mucosal glands (male Hartley)
T3 sequence (H0VZC5 1-426): T1 sequence (H0VZC5 1-426)
Description: Gastrin Receptor Binding in Guinea Pig Gastric Glands. Further details: species or system guinea pig (male Hartley). Conditions: 25° C., 30 minutes.

Where [3] appears, read: read-out: IC50 ^125 I-CCK Brain.
Where [4] appears, read: read-out: IC50 ^125 I-CCK Pancreas.
[5] abbreviates: ^125 I-gastrin, read-out: IC50 ^125 I-Gastrin Gastric Glands.
[6] abbreviates: IC50 ^125 I-Gastrin Gastric Glands.

Broadly, the IC50 is the concentration needed to halve the response being measured. Take `CN1C(=O)[C@@H](NC(=O)C2CCCCC2)N=C(c2ccccc2)c2ccccc21` [Example 191, (S)-N-(2,3-Dihydro-1-methyl-2-oxo-5-phenyl-1H-1,4-benzodiazepin-3-yl)-cyclohexanecarboxamide]: the values for the IC50 (in assay [1] (setting [3]); at CCK receptor (pancreas) (setting [4]); in assay [2] (setting [5])) were greater than 100000 nM, 800 nM and greater than 100000 nM, respectively.
Consider `CN1C(=O)[C@@H](NC(=O)C(C)(C)C)N=C(c2ccccc2)c2ccccc21` [Example 193, (S)-N-(2,3-Dihydro-1-methyl-2-oxo-5-phenyl-1H-1,4-benzodiazepin-3-yl]-2,2-dimethylpropanamide], for which the results for the IC50 (in assay [1] (IC50 ^125 I-CCK Brain); on CCK receptor (pancreas) (setting [4]); in assay [2] (setting [6])) were greater than 100000 nM, 1600 nM and 13000 nM, respectively.
For `CCOC(=O)CN1C(=O)C(NC(=O)Nc2ccc(Cl)cc2)N=C(c2ccccc2F)c2ccccc21` (stereo not drawn) [Example 194, 3-((((4-Chlorophenyl)amino)carbonyl)amino)-5-(2-fluorophenyl)-2,3-dihydro-2-oxo-1H-1,4-benzodiazepin-1-acetic acid ethyl ester], the IC50 in assay [1] (setting [3]) came out at 1.2 nM; at CCK receptor (pancreas) (setting [4]), 220 nM; in assay [2] (setting [5]), 4 nM.
For `CCOC(=O)CN1C(=O)C(NC(=O)NC(C)c2ccccc2)N=C(c2ccccc2F)c2ccccc21` (stereo not drawn) [Example 195, 5-(2-Fluorophenyl)-2,3-dihydro-2-oxo-((((1-phenylethyl)amino)carbonyl)amino)-1H-1,4-benzodiazepine-1-acetic acid ethyl ester], the IC50 in assay [1] (setting [3]) is greater than 100 nM; on CCK receptor (pancreas) (IC50 ^125 I-CCK Pancreas) it was 4800 nM; in assay [2] (setting [5]), 400 nM.
Turning to `CN1C(=O)C(NC(=O)c2ccc(Cl)cc2N)N=C(c2ccccc2)c2ccccc21` (stereo not drawn) [Example 196, 3-N-(2,3-Dihydro-1-methyl-2-oxo-5-phenyl-1H-1,4-benzodiazepine-3-yl)-2-amino-4-chlorobenzamide], the IC50 in assay [1] (IC50 ^125 I-CCK Brain) turned out to be 2400 nM; on CCK receptor (pancreas) (setting [4]), 0.9 nM; in assay [2] (setting [6]), 1900 nM.
On to `CN1C(=O)C(C(=O)Nc2ccc(Cl)cc2)N=C(c2ccccc2)c2ccccc21` (stereo not drawn) [Example 197, N-(4-Chlorphenyl)-2,3-dihydro-1-methyl-2-oxo-5-phenyl-1H-1,4-benzodiazepine-3-carboxamide], for which the 50% inhibitory concentration (IC50) in assay [1] (setting [3]) worked out at 5900 nM; at CCK receptor (pancreas) (IC50 ^125 I-CCK Pancreas), 1900 nM; in assay [2] (setting [5]), 10000 nM.
For `CN1C(=O)C(Cc2cn(C)c3ccccc23)N=C(c2ccccc2)c2ccccc21` (stereo not drawn) [Example 200, 1,3-Dihydro-1-methyl-3-((1-methyl-1H-indol-3-yl)methyl)-5-phenyl-2H-1,4-benzodiazepin-2-one] the same measures were 63000 nM, 100 nM and 67000 nM.
As for `O=C(O)CN1C(=O)C(NC(=O)Nc2ccc(Cl)cc2)N=C(c2ccccc2)c2ccccc21` (stereo not drawn) [Example 202, 3-((((4-Chlorophenyl)amino)carbonyl)amino)-2,3-dihydro-2-oxo-5-phenyl-1H-1,4-benzodiazepine-1-acetic acid], the 50% inhibitory concentration (IC50) in assay [1] (setting [3]) was found to be 72 nM; on CCK receptor (pancreas) (setting [4]) it was 56 nM; in assay [2] (setting [5]), 120 nM.
With `CN1C(=O)[C@@H](NC(=O)c2ccc(C(F)(F)F)cc2)N=C(c2ccccc2)c2ccccc21` [Example 203, (S)-N-(2,3-Dihydro-1-methyl-2-oxo-5-phenyl-1H-1,4-benzodiazepin-3-yl)-4-(trifluoromethyl)-benzamide], the half-maximal inhibitory concentration (IC50) in assay [1] (IC50 ^125 I-CCK Brain) came out at 4600 nM; at CCK receptor (pancreas) (setting [4]) it was 1.3 nM; in assay [2] (setting [5]), 6200 nM.
With `CCOC(=O)CN1C(=O)C(NC(=O)Nc2ccc(Cl)cc2)N=C(c2ccccc2)c2ccccc21` (stereo not drawn) [Example 204, 3-((((4-Chlorophenyl)amino)carbonyl)amino)-2,3-dihydro-2-oxo-5-phenyl-1H-1,4-benzodiazepine-1-acetic acid ethyl ester], the IC50 in assay [1] (IC50 ^125 I-CCK Brain) was 1 nM; at CCK receptor (pancreas) (setting [4]), 370 nM; in assay [2] (setting [6]), 3.3 nM.
As to `CCOC(=O)CN1C(=O)C(NC(=O)NC(C)C)N=C(c2ccccc2F)c2ccccc21` (stereo not drawn) [Example 205, 5-(2-Fluorophenyl)-2,5-dihydro-3-((((1-methylethyl)amino)carbonyl)amino)-2-oxo-1H-1,4-benzodiazepine-1-acetic acid ethyl ester], the IC50 in assay [1] (setting [3]) is greater than 300 nM; at CCK receptor (pancreas) (IC50 ^125 I-CCK Pancreas), 35000 nM; in assay [2] (setting [5]) it was 33000 nM.
Consider `CN1C(=O)[C@H](NC(=O)c2ccc(C(F)(F)F)cc2)N=C(c2ccccc2)c2ccccc21` [Example 207, (R)-N-(2,3-Dihydro-1-methyl-2-oxo-5-phenyl-1H-1,4-benzodiazepin-3-yl)-4-(trifluoromethyl)-benzamide], for which the 50% inhibitory concentration (IC50) in assay [1] (IC50 ^125 I-CCK Brain) is 3300 nM; on CCK receptor (pancreas) (setting [4]), 115000 nM; in assay [2] (setting [5]) it was 4200 nM.
`O=C(Nc1ccc(Cl)cc1)NC1N=C(c2ccccc2)c2ccccc2N(CC(=O)OCc2ccccc2)C1=O` (stereo not drawn) [Example 208, 3-((((4-Chlorophenyl)amino)carbonyl)amino)-2,3-dihydro-2-oxo-5-phenyl-1H-1,4-benzodiazepine-1-acetic acid phenylmethyl ester]: the concentration for half-maximal inhibition (IC50) in assay [1] (setting [3]) amounted to 44 nM; on CCK receptor (pancreas) (setting [4]), 1300 nM; in assay [2] (setting [5]), 140 nM.
On to `CCOC(=O)CN1C(=O)C(NC(=O)OCc2ccccc2)N=C(c2ccccc2)c2ccccc21` (stereo not drawn) [Example 209, 2,3-Dihydro-2-oxo-5-phenyl-3-(((phenylmethoxy)carbonyl)amino)-1H-1,4-benzodiazepine-1-acetic acid ethyl ester], for which the IC50 in assay [1] (setting [3]) was 300 nM; at CCK receptor (pancreas) (IC50 ^125 I-CCK Pancreas), 2200 nM; in assay [2] (setting [5]), 300 nM.
On to `CN1C(=O)[C@@H](Cc2c[nH]c3ccccc23)N=C(c2ccccc2)c2ccccc21` [Example 210, (R)-1,3-Dihydro-3-(1H-indol-3-ylmethyl)-1-methyl-5-phenyl-2H-1,4-benzodiazepin-2-one], for which the figures for the IC50 (in assay [1] (IC50 ^125 I-CCK Brain); on CCK receptor (pancreas) (IC50 ^125 I-CCK Pancreas); in assay [2] (setting [6])) were 10000 nM, 300 nM and 21000 nM, respectively.
Consider `O=C(CN1C(=O)C(NC(=O)OCc2ccccc2)N=C(c2ccccc2)c2ccccc21)NCc1ccccc1` (stereo not drawn) [Example 212, (2,3-Dihydro-2-oxo-1-(2-oxo-2-((phenylmethyl)amino)ethyl)-5-phenyl-1H-1,4-benzodiazepin-3-yl)-carbamic acid phenylmethyl ester], for which the IC50 is 400 nM in assay [1] (setting [3]), 1900 nM on CCK receptor (pancreas) (IC50 ^125 I-CCK Pancreas) and 600 nM in assay [2] (setting [5]).
Regarding `CCCCNC(=O)CN1C(=O)C(NC(=O)OCc2ccccc2)N=C(c2ccccc2)c2ccccc21` (stereo not drawn) [Example 213, {2,3-Dihydro-2-oxo-1-[2-oxo-2-(butylamino)ethyl]-5-phenyl-1H-1,4-benzodiazepin-3-yl}-carbamic acid phenylmethyl ester], the half-maximal inhibitory concentration (IC50) in assay [1] (setting [3]) came out at 380 nM; at CCK receptor (pancreas) (IC50 ^125 I-CCK Pancreas), 2100 nM; in assay [2] (setting [5]), 280 nM.
As to `CCOC(=O)CN1C(=O)C(NC(=O)c2cc3ccccc3[nH]2)N=C(c2ccccc2F)c2ccccc21` (stereo not drawn) [Example 214, 5-(2-Fluorophenyl)-2,3-dihydro-3-((1H-indol-2-ylcarbonyl)amino)-2-oxo-1H-1,4-benzodiazepine-1-acetic acid ethyl ester], the figures for the 50% inhibitory concentration (IC50) (in assay [1] (IC50 ^125 I-CCK Brain); on CCK receptor (pancreas) (setting [4]); in assay [2] (setting [6])) were 220 nM, 3 nM and 120 nM, respectively.
Regarding `CCNC(=O)CN1C(=O)C(NC(=O)OCc2ccccc2)N=C(c2ccccc2)c2ccccc21` (stereo not drawn) [Example 215], the half-inhibitory concentration (IC50) in assay [1] (setting [3]) amounted to 1800 nM; at CCK receptor (pancreas) (IC50 ^125 I-CCK Pancreas) it was 4800 nM; in assay [2] (setting [5]) it was 560 nM.
Consider `CN1C(=O)C(NC(=O)c2ccc(Br)cc2)N=C(c2ccccc2)c2ccccc21` (stereo not drawn) [Example 216, 4-Bromo-N-(2,3-dihydro-1-methyl-2-oxo-5-phenyl-1H-1,4-benzodiazepin-3-yl)-benzamide], for which the IC50 in assay [1] (IC50 ^125 I-CCK Brain) is 2400 nM; at CCK receptor (pancreas) (setting [4]) it was 1 nM; in assay [2] (setting [5]), 1700 nM.
